Laboratory results reported in publication PMC3502614 (Science (New York, N.Y.), 2011).

Target: T1, M. smegmatis RpsA (Mycolicibacterium smegmatis, UniProt A0QYY6)
T1 sequence (A0QYY6 1-479): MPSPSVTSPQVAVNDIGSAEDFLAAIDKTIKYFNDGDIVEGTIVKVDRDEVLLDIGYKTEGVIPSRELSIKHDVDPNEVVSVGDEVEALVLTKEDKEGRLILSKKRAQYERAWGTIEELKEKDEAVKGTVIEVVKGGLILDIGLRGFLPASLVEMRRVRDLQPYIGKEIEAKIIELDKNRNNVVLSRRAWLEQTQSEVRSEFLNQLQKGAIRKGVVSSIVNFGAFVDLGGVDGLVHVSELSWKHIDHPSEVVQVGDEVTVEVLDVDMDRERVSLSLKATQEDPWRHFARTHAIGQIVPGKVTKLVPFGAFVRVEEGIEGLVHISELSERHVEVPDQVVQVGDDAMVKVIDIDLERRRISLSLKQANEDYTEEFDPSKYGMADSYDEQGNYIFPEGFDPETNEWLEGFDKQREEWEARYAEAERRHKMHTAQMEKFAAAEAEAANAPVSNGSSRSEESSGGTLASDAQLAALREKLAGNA
Assay: isothermal titration calorimetry
Format: binding

O=C(O)c1cnccn1 [POA, 2-pyrazinecarboxylic acid]
weak binding by ITC: RpsA from naturally PZA-resistant M. smegmatis bound to POA only very weakly
